Assays:
db/db mice = test: OGTT in diabetic mice (db/db); assay type: in vivo; conditions: 5 μG/mouse ip
Protocol: An OGTT was conducted as described in Example 3. Peptides were injected intra-parentally (ip) at 5 μG/mouse doses.

CD-1 normal female mice = conditions: 1 μg dose ip, CD-1 mice
Protocol: An OGTT was done as described above. Plasma insulin levels were determined using a commercial RIA kit (Linco Research).

RINm5F cells = test: cAMP production in RINm5F cells; assay type: cell-based; conditions: Mean ± SD; for IC50: 40 minutes incubation with peptide, 0.5 mM IBMX
Protocol: RINm5F cells (ATCC # CRL-2058) were grown to confluence and used 4 days following confluency. Aqueous stock solutions (1 mM) of GLP-1, 5, 8, 16, and 17, also containing 0.1% BSA, were made prior to the assay. Cells were pre-incubated with 100 μl RPMI containing 0.5 mM IBMX for 10 minutes at 37° C. Diluted (10^−5 to 10^−11 M) peptides (100 μl) were added to the wells and incubated for 40 minutes. At the end of the incubation period, the supernatant was collected and assayed for cAMP using a radioimmunoassay kit (Diagnostic Product Corporation). Maximal responses (pmol/mg protein) and IC50 (nM) values were evaluated from the dose-response curves and data presented in Table 3.

[1] = cited from earlier work
Sprague-Dawley rats = test: Intraperitoneal glucose tolerance test (IPGTT), plasma insulin levels in Sprague-Dawley rats; assay type: in vivo; conditions: 10 μg/rat iv
Protocol: Sprague-Dawley rats (300–350 g) were fasted overnight, and injected with 1 g/kg glucose (2 ml) (over 15–20 seconds), and blood glucose levels were determined at different times during a period of 3 hours using a portable glucometer. The drugs (10 μg/rat) were dissolved in saline and injected into the femoral vein 5 minutes before the injection of glucose. Thus 0 time represents blood glucose and insulin levels after drug administration but before glucose injection. Plasma insulin levels were determined using a radioimmunoassay kit (Linco). […] The insulinogenic index was calculated as delta insulin (pM)/delta glucose (mM).

Substance | accelerating glucose disposal compared to GLP-1 (db/db mice) | IC50 (RINm5F cells) [µM] | Maximal Response (RINm5F cells) [pmol/mg protein] | other results
[H7] 3-methoxyphenyl acetic acid GLP-1 (7–37) COOH [Compound 7] | performed better than GLP-1 |  |  | effect on glucose disposal (CD-1 normal female mice): no effect on glucose disposal
[H7] 3-aminophenyl acetic acid GLP-1 (7–36) CONH2 [Compound 16] |  | 0.0102 ± 0.0077 | 13.8 ± 3.6 | 
[H7] (1S, 2S) 2-ethylcyclopropyl acetic acid GLP-1 (7–37) COOH [Compound 15] | performed better than GLP-1 |  |  | 
[H7] 3-aminophenyl acetic acid GLP-1 (7–37) COOH [Compound 5] |  | 0.0087 ± 0.0098 | 20.0 ± 6.9 | 
GLP-1 (7–37) OH [reference compound] |  | 0.0064 ± 0.0038 | 17.6 ± 5.1 | half-life of circulating GLP-1 ([1]; Kreymann et al., 1987): about 4 minutes; metabolic clearance rate ([1]; active GLP-1 (Holst, 1994)): 12 to 13 min; plasma half-life ([1]; active GLP-1 (Holst, 1994)): < 5 min; order of efficacy (Sprague-Dawley rats): 15=5>7=GLP-1>8=vehicle
[H7] Salicylic acid GLP-1 (7–37) CONH2 [Compound 17] |  | 0.0132 ± 0.0052 | 21.9 ± 2.1 | 
[H7] Salicylic acid GLP-1 (7–37) COOH [Compound 8] | performed better than GLP-1 | 0.0139 ± 0.0156 | 25.1 ± 11.9 | order of efficacy (Sprague-Dawley rats): 15=5>7=GLP-1>8=vehicle

Source: patent publication US7067488B2, “Modified GLP-1 peptides with increased biological potency” (TheraTechnologies Inc., priority 2002, dated 2006)
